# Laboratory results reported in patent US8044079B2, “Substituted oxindole derivatives, medicaments containing said derivatives and use thereof” (Abbott GmbH & Co. KG, priority 2005, dated 2011).
# Target: T1, human vasopressin V1b receptor (Homo sapiens, UniProt P47901)
# T1 construct: expressed in transfected cells; host or cells: CHO-K1 (cell line hV1b_3H2_CHO), membrane preparation
# T1 sequence (P47901 1-424): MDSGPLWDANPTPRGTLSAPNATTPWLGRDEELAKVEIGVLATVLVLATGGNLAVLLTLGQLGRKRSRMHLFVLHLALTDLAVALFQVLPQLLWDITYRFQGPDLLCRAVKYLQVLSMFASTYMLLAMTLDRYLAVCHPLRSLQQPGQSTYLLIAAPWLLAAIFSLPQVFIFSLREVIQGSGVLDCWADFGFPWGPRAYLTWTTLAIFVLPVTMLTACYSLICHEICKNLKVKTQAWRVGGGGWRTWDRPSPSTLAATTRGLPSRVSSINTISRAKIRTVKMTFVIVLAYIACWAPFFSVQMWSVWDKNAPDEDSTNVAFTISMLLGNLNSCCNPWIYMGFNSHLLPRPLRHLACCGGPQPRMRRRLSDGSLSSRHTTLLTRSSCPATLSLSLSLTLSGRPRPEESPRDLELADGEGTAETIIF
# Assay: Vasopressin V1b receptor binding test
# Conditions: membranes of CHO-K1 cells with human V1b receptor, displacement of 1.5 nM 3H-AVP; for compounds with more than one stereogenic center the diastereomer with greater affinity
# In short: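 Radioligand displacement on membranes carrying human V1b receptor in 50 mM tris, 10 mM MgCl2, 0.1% BSA, pH 7.4, 2% DMSO final; 60 min at room temperature, nonspecific binding with 1 μM AVP. Free ligand removed by filtration, bound counted by liquid scintillation, Ki from nonlinear regression of triplicates.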
row,Ki [nM],Structure (SMILES)
1,< 10,"COc1ccc(S(=O)(=O)N2C(=O)C(c3ccc(CN4CCNCC4)cc3OC)(N3CCC[C@H]3c3ncco3)c3cc(Cl)c(F)cc32)cc1 (stereo partly drawn) [Example 211, 5-Chloro-6-fluoro-1-(4-methoxybenzenesulfonyl)-3-(2-methoxy-4-piperazin-1-ylmethylphenyl)-3-((S)-2-oxazol-2-yl-pyrrolidin-1-yl)-1,3-dihydroindol-2-one]"
2,< 10,"COc1ccc(S(=O)(=O)N2C(=O)C(c3ccc(CN4CCN(CCO)CC4)cc3OC)(N3CCC[C@H]3c3ncco3)c3cc(Cl)c(F)cc32)cc1 (stereo partly drawn) [Example 212, 5-Chloro-6-fluoro-3-{4-[4-(2-hydroxyethyl)piperazin-1-ylmethyl]-2-methoxyphenyl}-1-(4-methoxybenzenesulfonyl)-3-((S)-2-oxazol-2-yl-pyrrolidin-1-yl)-1,3-dihydroindol-2-one]"
3,< 10,"CCNCc1ccc(OC)c(C2(N3CCC[C@H]3c3ncon3)C(=O)N(S(=O)(=O)c3ccc(OC)cc3)c3ccc(Cl)cc32)c1 (stereo partly drawn) [Example 216, 5-Chloro-3-(5-ethylaminomethyl-2-methoxyphenyl)-1-(4-methoxybenzenesulfonyl)-3-((S)-2-[1,2,4]oxadiazol-3-yl-pyrrolidin-1-yl)-1,3-dihydroindol-2-one]"
4,< 10,"CNCc1ccc(C2(N3C[C@H](O)C[C@H]3c3ncco3)C(=O)N(S(=O)(=O)c3ccc(OC)cc3)c3ccc(Cl)cc32)c(OC)c1 (stereo partly drawn) [Example 217, 5-Chloro-3-((2S,4R)-4-hydroxy-2-oxazol-2-yl-pyrrolidin-1-yl)-1-(4-methoxybenzenesulfonyl)-3-(2-methoxy-4-methylaminomethylphenyl)-1,3-dihydroindol-2-one]"
5,10 to 100,"COc1ccc(S(=O)(=O)N2C(=O)C(c3cc(CN4CCOCC4)ccc3OC)(N3C[C@H](O)C[C@H]3c3ncco3)c3cc(C#N)ccc32)cc1 (stereo partly drawn) [Example 220, 5-Cyano-3-((2S,4R)-4-hydroxy-2-oxazol-2-yl-pyrrolidin-1-yl)-1-(4-methoxybenzenesulfonyl)-3-(2-methoxy-5-morpholin-4-ylmethylphenyl)-1,3-dihydroindol-2-one]"
6,< 10,"CCN1CCN(Cc2ccc(OC)c(C3(N4C[C@H](O)C[C@H]4c4ncco4)C(=O)N(S(=O)(=O)c4ccc(OC)cc4)c4ccc(C#N)cc43)c2)CC1 (stereo partly drawn) [Example 221, 5-Cyano-3-[5-(4-ethylpiperazin-1-ylmethyl)-2-methoxyphenyl]-3-((2S,4R)-4-hydroxy-2-oxazol-2-yl-pyrrolidin-1-yl)-1-(4-methoxybenzenesulfonyl)-2,3-dihydro-1H-indol-2-one]"
7,10 to 100,"COc1ccc(S(=O)(=O)N2C(=O)C(c3cc(CN4CCN(CCO)CC4)ccc3OC)(N3C[C@H](O)C[C@H]3c3ncco3)c3cc(C#N)ccc32)cc1 (stereo partly drawn) [Example 222, 5-Cyano-3-{5-[4-(2-hydroxyethyl)piperazin-1-ylmethyl]-2-methoxyphenyl}-3-((2S,4R)-4-hydroxy-2-oxazol-2-yl-pyrrolidin-1-yl)-1-(4-methoxybenzenesulfonyl)-2,3-dihydro-1H-indol-2-one]"
8,< 10,"COc1ccc(S(=O)(=O)N2C(=O)C(c3cc(CN(C)C)ccc3OC)(N3C[C@H](OC)C[C@H]3c3ncco3)c3cc(Cl)ccc32)cc1 (stereo partly drawn) [Example 223, 5-Chloro-3-(5-dimethylaminomethyl-2-methoxyphenyl)-1-(4-methoxybenzenesulfonyl)-3-((2S,4R)-4-methoxy-2-oxazol-2-yl-pyrrolidin-1-yl)-1,3-dihydroindol-2-one]"
9,< 10,"COc1ccc(S(=O)(=O)N2C(=O)C(c3cc(CN4CCN(C)CC4)ccc3OC)(N3C[C@H](OC)C[C@H]3c3ncco3)c3cc(Cl)ccc32)cc1 (stereo partly drawn) [Example 224, 5-Chloro-1-(4-methoxybenzenesulfonyl)-3-[2-methoxy-5-(4-methylpiperazin-1-ylmethyl)phenyl]-3-((2S,4R)-4-methoxy-2-oxazol-2-yl-pyrrolidin-1-yl)-1,3-dihydroindol-2-one]"
10,10 to 100,"COc1ccc(S(=O)(=O)N2C(=O)C(c3cc(CN4CCN(C)CC4)ccc3OC)(N3CCC[C@@]3(C)c3ncco3)c3cc(Cl)ccc32)cc1 (stereo partly drawn) [Example 225, 5-Chloro-1-(4-methoxybenzenesulfonyl)-3-[2-methoxy-5-(4-methylpiperazin-1-ylmethyl)phenyl]-3-((S)-2-methyl-2-oxazol-2-yl-pyrrolidin-1-yl)-1,3-dihydroindol-2-one]"
11,< 10,"COc1ccc(S(=O)(=O)N2C(=O)C(c3cc(CN4CCN(CCO)CC4)ccc3OC)(N3CCC[C@@]3(C)c3ncco3)c3cc(Cl)ccc32)cc1 (stereo partly drawn) [Example 226, 5-Chloro-3-{5-[4-(2-hydroxyethyl)piperazin-1-ylmethyl]-2-methoxyphenyl}-1-(4-methoxybenzenesulfonyl)-3-((S)-2-methyl-2-oxazol-2-yl-pyrrolidin-1-yl)-1,3-dihydroindol-2-one]"
12,< 10,"CNCc1ccc(OC)c(C2(N3CCC[C@@]3(C)c3ncco3)C(=O)N(S(=O)(=O)c3ccc(OC)cc3)c3ccc(Cl)cc32)c1 (stereo partly drawn) [Example 227, 5-Chloro-1-(4-methoxybenzenesulfonyl)-3-(2-methoxy-5-methylaminomethylphenyl)-3-((S)-2-methyl-2-oxazol-2-yl-pyrrolidin-1-yl)-1,3-dihydroindol-2-one]"

row,Structure (SMILES),Ki [nM]
1,"COc1ccc(S(=O)(=O)N2C(=O)C(c3cc(CN4CCCC4)ccc3OC)(N3C[C@H](OC(C)(C)C)C[C@H]3c3ncco3)c3cc(Cl)ccc32)cc1 (stereo partly drawn) [Example 213, 3-((2S,4R)-4-tert-butoxy-2-oxazol-2-yl-pyrrolidin-1-yl)-5-chloro-1-(4-methoxybenzenesulfonyl)-3-(2-methoxy-5-pyrrolidin-1-ylmethylphenyl)-1,3-dihydroindol-2-one]",10 to 100
2,"COc1ccc(S(=O)(=O)N2C(=O)C(c3cc(CN4CCN(C)CC4)ccc3OC)(N3C[C@H](OC(C)(C)C)C[C@H]3c3ncco3)c3cc(Cl)ccc32)cc1 (stereo partly drawn) [Example 214, 3-((2S,4R)-4-tert-butoxy-2-oxazol-2-yl-pyrrolidin-1-yl)-5-chloro-1-(4-methoxybenzenesulfonyl)-3-[2-methoxy-5-(4-methylpiperazin-1-ylmethyl)phenyl]-1,3-dihydroindol-2-one]",< 10
3,"COc1ccc(S(=O)(=O)N2C(=O)C(c3cc(CN4CCN(CCO)CC4)ccc3OC)(N3C[C@H](OC(C)(C)C)C[C@H]3c3ncco3)c3cc(Cl)ccc32)cc1 (stereo partly drawn) [Example 215, 5-Chloro-3-((2S,4R)-4-tert-butoxy-2-oxazol-2-yl-pyrrolidin-1-yl)-3-{5-[4-(2-hydroxyethyl)piperazin-1-ylmethyl]-2-methoxyphenyl}-1-(4-methoxybenzenesulfonyl)-1,3-dihydroindol-2-one]",10 to 100
4,"COc1ccc(S(=O)(=O)N2C(=O)C(c3cc(CN(C)C)ccc3OC)(N3C[C@H](OC(C)(C)C)C[C@H]3c3ncco3)c3cc(Cl)ccc32)cc1 (stereo partly drawn) [Example 218, 3-((2S,4R)-4-tert-butoxy-2-oxazol-2-yl-pyrrolidin-1-yl)-5-chloro-3-(5-dimethylaminomethyl-2-methoxyphenyl)-1-(4-methoxybenzenesulfonyl)-1,3-dihydroindol-2-one]",10 to 100
5,"CCNCc1ccc(OC)c(C2(N3C[C@H](OC(C)(C)C)C[C@H]3c3ncco3)C(=O)N(S(=O)(=O)c3ccc(OC)cc3)c3ccc(Cl)cc32)c1 (stereo partly drawn) [Example 219, 3-((2S,4R)-4-tert-butoxy-2-oxazol-2-yl-pyrrolidin-1-yl)-5-chloro-3-(5-ethylaminomethyl-2-methoxyphenyl)-1-(4-methoxybenzenesulfonyl)-1,3-dihydroindol-2-one]",< 10
